Source: PubChem BioAssay AID248 (DTP/NCI, 2004)
Inconclusive results and toxic doses are left out. Cut-off read from the data, not from the text of the source: active = T/C of 150% or more; inactive = T/C below 125%.

Test system: L1210 leukemia ip in BDF1 mice, survival T/C
Test: NCI In Vivo Anticancer Drug Screen. Data for tumor model L1210 Leukemia (intraperitoneal) in B6D2F1 (BDF1) mice
Conditions: endpoint: mean survival time, higher = longer survival
Procedure, shortened: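 Tumor cells were implanted, animals were treated, and survival was followed. The result divides the treated measurement by the vehicle-control measurement.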

Measured: T/C

COc1ccc(/C=C(/C(=O)c2ccc(O)cc2)c2ccccc2)cc1
inactive: dose: 100.0 mg/kg/injection, schedule: Q01DX001 (ip), vehicle: carboxymethylcellulose (CMC) 87 % of control | dose: 200.0 mg/kg/injection, schedule: Q01DX001 (ip), vehicle: carboxymethylcellulose (CMC) 89 % of control | dose: 400.0 mg/kg/injection, schedule: Q01DX001 (ip), vehicle: carboxymethylcellulose (CMC) 87 % of control

CC(=O)C(C)C(O)c1ccc([N+](=O)[O-])cc1 (centres undefined)
inactive: dose: 100.0 mg/kg/injection, schedule: Q01DX009 (ip), vehicle: Klucel (hydroxypropylcellulose) (HPC) 91 % of control | dose: 100.0 mg/kg/injection, schedule: Q04DX003 (ip), vehicle: Klucel (hydroxypropylcellulose) (HPC) 100 % of control | dose: 200.0 mg/kg/injection, schedule: Q01DX009 (ip), vehicle: Klucel (hydroxypropylcellulose) (HPC) 91 % of control | dose: 200.0 mg/kg/injection, schedule: Q04DX003 (ip), vehicle: Klucel (hydroxypropylcellulose) (HPC) 98 % of control | dose: 400.0 mg/kg/injection, schedule: Q01DX009 (ip), vehicle: Klucel (hydroxypropylcellulose) (HPC) 92 % of control | dose: 400.0 mg/kg/injection, schedule: Q04DX003 (ip), vehicle: Klucel (hydroxypropylcellulose) (HPC) 98 % of control
